US6444612B1, “Use of 5-amino-pyrazol-derivatives for combating micro-organisms” (Bayer Aktiengesellschaft, priority 1998, dated 2002)

Test: log P value (physical constant)
Type: physicochemical
Conditions: logP, Table 4

Row | Structure (SMILES) | Physical constant (logP)
1 | COC(=O)c1c(C)nn(C)c1NC(=O)Cc1cccc(Br)c1 [Example 135] | logP = 2.11
2 | CCc1nn(C)c(NC(=O)Cc2c(C)cc(C)cc2C)c1C#N [Example 136] | logP = 2.83
3 | Cc1cc(C)c(CC(=O)Nc2c(C#N)c(C)nn2C)c(C)c1 [Example 137] | logP = 2.36
4 | Cc1ccc(Oc2ccccc2CC(=O)Nc2c(Cl)c(C)nn2C)c(C)c1 [Example 138] | logP = 3.44
5 | Cc1nn(C)c(NC(=O)Cc2ccc(-c3ccccc3)cc2)c1Cl [Example 139] | logP = 2.81
6 | Cc1ccc(-c2cccc(Cl)c2)cc1CC(=O)Nc1c(Cl)c(C)nn1C [Example 140] | logP = 3.53
7 | Cc1cc(C)cc(-c2cc(C)c(CC(=O)Nc3c(Cl)c(C)nn3C)c(C)c2)c1 [Example 141] | logP = 4.09
8 | COc1ccccc1-c1cc(C)c(CC(=O)Nc2c(Cl)c(C)nn2C)c(C)c1 [Example 142] | logP = 3.25
9 | Cc1cc(-c2cccc(Cl)c2)cc(C)c1CC(=O)Nc1c(Cl)c(C)nn1C [Example 143] | logP = 3.79
10 | Cc1ccc(-c2ccc(Cl)cc2)c(C)c1CC(=O)Nc1c(Cl)c(C)nn1C [Example 144] | logP = 3.84
11 | Cc1cc(C)c(-c2ccccc2Cl)cc1CC(=O)Nc1c(Cl)c(C)nn1C [Example 145] | logP = 3.64
12 | Cc1cc(C)c(-c2ccc(Cl)cc2)cc1CC(=O)Nc1c(Cl)c(C)nn1C [Example 146] | logP = 3.82
13 | Cc1cc(C)c(-c2ccc(Cl)cc2)c(C)c1CC(=O)Nc1c(Cl)c(C)nn1C [Example 147] | logP = 4.08
14 | Cc1nn(C)c(NC(=O)Cc2c(F)cc(F)c(F)c2C(F)(F)F)c1Cl [Example 148] | logP = 2.60
15 | Cc1ccc(Oc2ccccc2CC(=O)Nc2c(C#N)c(C)nn2C)c(C)c1 [Example 149] | logP = 3.17
16 | Cc1nn(C)c(NC(=O)Cc2ccc(-c3ccccc3)cc2)c1C#N [Example 150] | logP = 2.57
17 | Cc1ccc(-c2ccc(Cl)cc2)cc1CC(=O)Nc1c(C#N)c(C)nn1C [Example 151] | logP = 3.20
18 | Cc1cc(C)cc(-c2cc(C)c(CC(=O)Nc3c(C#N)c(C)nn3C)c(C)c2)c1 [Example 152] | logP = 3.88
19 | COc1ccccc1-c1cc(C)c(CC(=O)Nc2c(C#N)c(C)nn2C)c(C)c1 [Example 153] | logP = 2.95
20 | Cc1cc(-c2ccc(Cl)cc2)cc(C)c1CC(=O)Nc1c(C#N)c(C)nn1C [Example 154] | logP = 3.46
21 | Cc1cc(-c2cccc(Cl)c2)cc(C)c1CC(=O)Nc1c(C#N)c(C)nn1C [Example 155] | logP = 3.42
22 | Cc1ccc(-c2ccc(Cl)cc2)c(C)c1CC(=O)Nc1c(C#N)c(C)nn1C [Example 156] | logP = 3.43
23 | Cc1cc(C)c(-c2ccccc2Cl)cc1CC(=O)Nc1c(C#N)c(C)nn1C [Example 157] | logP = 3.24
24 | Cc1cc(C)c(-c2ccc(Cl)cc2)cc1CC(=O)Nc1c(C#N)c(C)nn1C [Example 158] | logP = 3.49
25 | Cc1cc(C)c(-c2ccc(Cl)cc2)c(C)c1CC(=O)Nc1c(C#N)c(C)nn1C [Example 159] | logP = 3.70
26 | Cc1nn(C)c(NC(=O)Cc2c(F)cc(F)c(F)c2C(F)(F)F)c1C#N [Example 160] | logP = 2.32
27 | CCc1nn(C)c(NC(=O)Cc2ccccc2Oc2ccc(C)cc2C)c1C#N [Example 161] | logP = 3.44
28 | CCc1nn(C)c(NC(=O)Cc2ccc(-c3ccccc3)cc2)c1C#N [Example 162] | logP = 2.81
29 | CCc1nn(C)c(NC(=O)Cc2cc(-c3ccc(Cl)cc3)ccc2C)c1C#N [Example 163] | logP = 3.49
30 | CCc1nn(C)c(NC(=O)Cc2c(C)cc(-c3cc(C)cc(C)c3)cc2C)c1C#N [Example 164] | logP = 3.96
